Consider 5 molecules from US20210061859A1, “NTCP Inhibitor” (The University of Tokyo, priority 2018, published 2021).

Values after ≈ are worked out from the molar mass of the structure shown. Where a SMILES comes first, the peptide text is derived from it. Bridges are numbered along the chain shown (N, C = ends). [ ]: non-standard residue; d: D form. Sar = CNCC(=O)O

One data set has as its target T1, human NTCP (Homo sapiens, UniProt Q14973).
T1 construct: made in house; host or cells: wheat germ cell-free protein synthesis system
T1 sequence (Q14973 1-349): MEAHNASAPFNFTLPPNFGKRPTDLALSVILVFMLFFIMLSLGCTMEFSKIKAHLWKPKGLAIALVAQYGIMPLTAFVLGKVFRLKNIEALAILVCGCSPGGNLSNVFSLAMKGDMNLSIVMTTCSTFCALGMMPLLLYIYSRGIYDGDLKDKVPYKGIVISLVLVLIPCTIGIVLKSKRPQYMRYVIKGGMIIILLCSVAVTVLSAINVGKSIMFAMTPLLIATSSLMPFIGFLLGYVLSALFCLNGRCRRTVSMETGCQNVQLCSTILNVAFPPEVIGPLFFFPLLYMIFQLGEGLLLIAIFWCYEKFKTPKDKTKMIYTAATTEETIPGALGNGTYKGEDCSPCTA
Kind of data set: Surface plasmon resonance binding to immobilized recombinant NTCP. Particulars: single-cycle kinetics, 1:1 binding model, NTCP immobilized on NTA-Ni2+, read-out: Kd. The protocol: FIG. 7 is a diagram showing the NTCP association constant of a peptide identified by first RaPID screening. A single-cycle reaction kinetics experiment was conducted using NTCP immobilized on surface (NTA-Ni^2+) involving varying concentrations of a cyclic peptide analyte. In each case, as shown in the drawing, the peptide was tested with 4-fold serial dilutions starting from the highest concentration of 200 or 1000 nM. A dissociation constant (KD) was determined using a 1:1 binding model.
FIG. 9 is a diagram showing the NTCP association constant of a peptide identified by focused library RaPID screening. A single-cycle association constant experiment was conducted using NTCP immobilized on surface (NTA-Ni^2+) involving varying concentrations of a cyclic peptide analyte. In each case, as shown in the drawing, the peptide was tested with 4-fold serial dilutions starting from the highest concentration of 200 or 1000 nM. A dissociation constant (KD) was determined using a 1:1 binding model.
The association constant of each peptide for human NTCP was measured using a Biacore T200 apparatus (GE Healthcare Japan Corp.). The running buffer solution used was HBS-P+ (10 mM HEPES, 150 mM NaCl, and 0.05 vol % surfactant P20, pH 7.4) containing 0.1 vol % DMSO and 1 mM β-dodecyl-maltoside. 100 nM recombinant NTCP was immobilized on a NTA chip treated with Ni^2+ according to the manufacturer's instructions (baseline response: 1000 to 3000 refraction units). Peptides were injected as analytes at a flow rate of 60 μL/min, and association constants were modelled using a 1:1 binding model.

Data set [1] has as its system HBV genotype D. The data set is classed as cell-based, hepatitis B virus. Particulars: primary human hepatocytes, purified HBV as inoculum, HBs antigen in culture supernatant; read-out: 50% inhibitory concentrations (IC50), HBs antigen. As for the experimental part: FIG. 2 is a diagram showing the anti-HBV effect of a peptide from initial screening. FIG. 2(a) is a schematic diagram of a HepG2-hNTCP-C4 infection experiment. HepG2-hNTCP-C4 cells were pretreated with a peptide for 2 hours and subsequently inoculated with HBV for 16 hours in the presence of the peptide. Free HBV and peptide were washed off. Then, the cells were further cultured for 12 days in the absence of the peptide, and HBV infection was evaluated on the basis of measurement of HBs antigen in the culture supernatant. The filled boxes and the broken-line boxes depict periods for which the treatment was performed and periods for which the treatment was not performed, respectively. […] HBV infection was evaluated by monitoring HBs antigen secreted into a culture supernatant on 12 days after inoculation by ELISA. In FIG. 2(c), a cell survival rate was measured by MTT assay.
FIG. 3 is a diagram showing the anti-HBV effect of a peptide by focused library screening. […] HBV infection was evaluated by measurement of HBe antigen (a), and a cell survival rate (b) was evaluated by MTT assay as shown in FIG. 2.
HBV genotype D used in this study (FIGS. 1 to 3) was derived from the culture supernatant of Hep38.7-Tet cells, and prepared by a known method (the method described in Tsukuda, S. et al. Dysregulation of retinoic acid receptor diminishes hepatocyte permissiveness to hepatitis B virus infection through modulation of sodium taurocholate cotransporting polypeptide (NTCP) expression. The Journal of biological chemistry 290, 5673-5684 (2015), and Ogura, N., Watashi, K., Noguchi, T. & Wakita, T. Formation of covalently closed circular DNA in Hep38.7-Tet cells, a tetracycline inducible hepatitis B virus expression cell line. Biochemical and biophysical research communications 452, 315-321 (2014)). Purified HBV (FIG. 1(d)) was prepared by ultrafiltration to remove an excess of components in FBS and medium. HBV genotypes A, B, and C and genotype C having the L180M/S202G/M204V mutations (nucleoside analog-resistant HBV) or G145R substitution (vaccine-escape HBV) (FIG. 4(d)) were prepared from the culture supernatant of HepG2 cells transfected with the corresponding expression plasmid. HBV was inoculated at 12,000 (FIGS. 1(a), 1(b), and 1(d)), 1000 to 2000 (FIG. 2(b)) or 500 (FIGS. 3(a) and 4(d)) genome equivalents (GEq)/cell in the presence of 4% polyethylene glycol 8000 (PEG8000) and incubated at 37° C. for 16 hours by a known method (the method described in Watashi, K. et al. Interleukin-1 and tumor necrosis factor-alpha trigger restriction of hepatitis B virus infection via a cytidine deaminase activation-induced cytidine deaminase (AID). The Journal of biological chemistry 288, 31715-31727 (2013)).
HBe antigen was detected by a chemiluminescence immunoassay (CLIA) (LSI Medience Corp.). HBs antigen was quantified by enzyme-linked immunosorbent assay (ELISA) as described in a known method (the method described in Watashi, K. et al. Interleukin-1 and tumor necrosis factor-alpha trigger restriction of hepatitis B virus infection via a cytidine deaminase activation-induced cytidine deaminase (AID). The Journal of biological chemistry 288, 31715-31727 (2013)).
Subsequently, the present inventors evaluated the effect of the 10 peptides described above on HBV infection in primary human hepatocytes. […] HBV infection was evaluated by measuring HBs antigen in the culture supernatant. […]

The next data set has as its system HepG2-hNTCP-C4 cells. The note with it: HBV infection assay.
In data set [2] the test system is HBV genotype D. Kind of data set: HBV infection assay in HepG2-hNTCP-C4 cells (HBs and HBc antigens). The note with it: 100 nM entecavir. The format is cell-based, hepatitis B virus.
Description: HBs antigen secreted into a culture supernatant (a) and HBc antigen in the cells (b) were detected by ELISA and an immunofluorescence method, respectively. A cell survival rate was measured by quantifying total cellular DNA (c). The staining images of (b) each show the HBc antigen and the nucleus. […] HBs antigen secreted into a culture supernatant was detected by ELISA. Data is indicated by mean±SD. Statistical significance was determined by use of Student's t test as to all numbers (*P<0.05, **P<0.01, N.S.: not significant). […]
HBs antigen was quantified by enzyme-linked immunosorbent assay (ELISA) as described in a known method (the method described in Watashi, K. et al. Interleukin-1 and tumor necrosis factor-alpha trigger restriction of hepatitis B virus infection via a cytidine deaminase activation-induced cytidine deaminase (AID). The Journal of biological chemistry 288, 31715-31727 (2013)). […]
After HBV inoculation, HBs antigen was measured in a culture supernatant, and HBc antigen was evaluated in the cells to confirm HBV infection, as shown in FIG. 2(a).
The target in data set [3] is human NTCP on cells (HepG2-hNTCP-C4 cells overexpressing the human NTCP gene; primary human hepatocytes) (human) (UniProt Q14973). Put plainly: cell-based or functional assay.

Broadly, the Kd is the equilibrium constant for the complex coming apart. In general, solubility refers to how much of the substance goes into solution per volume. For `CC[C@H](C)[C@@H]1NC(=O)[C@H](Cc2c[nH]c3ccccc23)NC(=O)[C@H]([C@@H](C)CC)NC(=O)[C@H](C(C)C)NC(=O)[C@H](Cc2ccc(O)cc2)NC(=O)CSC[C@@H](C(=O)N[C@H](C(N)=O)[C@@H](C)O)NC(=O)[C@H](Cc2ccc(O)cc2)NC(=O)[C@H](Cc2ccc(O)cc2)NC(=O)[C@H](Cc2ccccc2)NC(=O)[C@H](Cc2c[nH]cn2)NC(=O)[C@H](CC(N)=O)NC(=O)[C@@H]2CCCN2C(=O)[C@H](Cc2c[nH]c3ccccc23)NC1=O` [WL4] ({CH2CO}-YVIWIWPNHFYYCT-NH2; thioether N-13), the solubility was roughly 30 µM (≈ 58.3 µg/mL). Further, the Kd on human NTCP amounted to 0.042 µM. Also, the IC50 in the data set on HBV genotype D [1] was 0.66 ± 0.03 µM. For the same molecule, the “cytotoxicity (cell survival rate, total cellular DNA)” value (“cytotoxicity” for short) in the data set with HepG2-hNTCP-C4 cells was “without marked cytotoxicity”.

Take `C=C1[C@H](CO)[C@@H](O)C[C@@H]1n1cnc2c(=O)[nH]c(N)nc21` [entecavir]: in the data set with HBV genotype D [2], the “HBV infection monitored by HBc antigen” value is “did not exhibit a significant reduction” and the “HBV infection monitored by HBs antigen” value was “did not exhibit a significant reduction”.

In data set [3], cyclosporin A (peptide) registered a 50% inhibitory concentration (IC50), HBs antigen in culture supernatant, HBV infection assay of 3.17 µM.

The molecule `CC[C@H](C)[C@@H]1NC(=O)[C@H](Cc2ccc(O)cc2)NC(=O)CSC[C@@H](C(=O)N[C@H](C(N)=O)[C@@H](C)O)NC(=O)[C@H](Cc2ccc(O)cc2)NC(=O)[C@H]([C@@H](C)CC)NC(=O)[C@H](C(C)C)NC(=O)[C@H](Cc2ccc(O)cc2)NC(=O)CNC(=O)[C@@H]2CCCN2C(=O)[C@H](Cc2c[nH]c3ccccc23)NC(=O)[C@H]([C@@H](C)CC)NC(=O)[C@H](Cc2c[nH]c3ccccc23)NC1=O` [WL2] ({CH2CO}-YIWIWPGYVIYCT-NH2; thioether N-12) showed a solubility of roughly 30 µM (≈ 51.5 µg/mL). In addition, the Kd at human NTCP was determined as 0.157 µM. Moreover, in the data set with HBV genotype D [1], the IC50 was 2.54 ± 0.11 µM. Further, the “cytotoxicity” value in the data set with HepG2-hNTCP-C4 cells is “without marked cytotoxicity”.

`CC[C@H](C)[C@@H]1NC(=O)[C@H](Cc2ccccc2)NC(=O)[C@@H](Cc2ccc(O)cc2)NC(=O)CSC[C@@H](C(=O)N[C@H](C(N)=O)[C@@H](C)O)NC(=O)[C@H](CO)NC(=O)[C@H](Cc2c[nH]c3ccccc23)NC(=O)[C@H]([C@@H](C)O)NC(=O)[C@H](Cc2c[nH]c3ccccc23)NC(=O)[C@H]([C@@H](C)O)NC(=O)[C@H](Cc2c[nH]c3ccccc23)NC(=O)[C@H]([C@@H](C)O)NC(=O)CN(C)C(=O)[C@H](C(C)C)NC(=O)[C@H]([C@@H](C)CC)NC1=O` [WD1] ({CH2CO}-[dY]FIIV[Sar]TWTWTWSCT-NH2; thioether N-14) had a solubility of roughly 30 µM (≈ 57.5 µg/mL). Further, the Kd at human NTCP is 0.015 µM. Besides, the IC50 in the data set on HBV genotype D [1] was determined as 0.85 ± 0.01 µM. In addition, the “cytotoxicity” value with HepG2-hNTCP-C4 cells was “without marked cytotoxicity”.
